As a reminder, the IC50 is the midpoint of a concentration-inhibition curve.

Bounds are passed on as bounds.

Assay [1] addresses T1, OX1R (Homo sapiens, UniProt O43613).
T1 construct: expressed in transfected cells
T1 sequence (O43613 1-425): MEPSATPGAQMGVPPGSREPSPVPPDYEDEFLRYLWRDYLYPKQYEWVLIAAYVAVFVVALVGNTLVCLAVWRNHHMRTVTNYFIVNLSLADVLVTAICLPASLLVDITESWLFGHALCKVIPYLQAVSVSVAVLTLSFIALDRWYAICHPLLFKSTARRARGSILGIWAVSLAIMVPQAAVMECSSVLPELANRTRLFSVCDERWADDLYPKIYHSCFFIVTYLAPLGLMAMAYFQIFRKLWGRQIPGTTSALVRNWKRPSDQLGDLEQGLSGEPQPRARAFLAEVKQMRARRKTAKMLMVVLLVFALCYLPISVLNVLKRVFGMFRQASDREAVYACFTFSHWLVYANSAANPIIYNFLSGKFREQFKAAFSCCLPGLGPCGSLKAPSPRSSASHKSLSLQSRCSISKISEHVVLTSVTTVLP
The experiment in a line: FLIPR intracellular calcium antagonism test, HEK293-OX1R cells. The format is cell-based. The note with it: Orexin A at EC70, read-out: hOXIR IC50. Here is the method:
(§1) The change of intracellular calcium signal was detected by FLIPR, and the antagonism of the compounds on OX1R and OX2R receptors was evaluated by using IC50 value of the compounds as an index.
(§2) • Cell lines: Transfected HEK293-OX1R and HEK293-OX2R stable cell lines • HEK293-OX1R cell culture medium (DMEM, Invitrogen #11960-044, 10% serum Gibco #10099141, L-Glutamine 1×, Gibco #25030, sodium pyruvate 1×, Gibco #11360, Geneticin 300 μg/mL, Gibco #10131) • HEK293-OX2R cell culture medium (DMEM, Invitrogen #11960-044, 10% serum Gibco #10099141, L-Glutamine 1×, Gibco #25030, sodium pyruvate 1×, Gibco #11360, Geneticin 300 μg/mL, Gibco #10131, Blasticin 2 μg/mL, Invitrogen #R21001)
(§3) Experimental Steps and Methods: • a) Cell seeding (HEK293-OX1R and HEK293-OX2R cells) • 1) preheating the culture medium, trypsin and DPBS under water bath at 37° C.; pipetting and removing the medium of cell culture and washing same with 10 mL of DPBS; • 2) adding the preheated trypsin to a culture flask, rotating the culture flask so that the trypsin evenly covered the culture flask, and putting the culture flask in a 37° C., 5% CO2 incubator for digestion for 1-2 min; • 3) suspending the cells with 10-15 mL of medium for each T150 and centrifuging at 800 rpm for 5 min; resuspending the cells with 10 mL of medium, pipetting 1 mL of the cell suspension and counting with Vi-cell; • 4) diluting OX1R cells with medium to 5×10^5 cells/mL, and diluting OX2R cells with medium to 4×10^5 cells/mL, and adding the diluted cells to 384 plate (Greiner.781946) with a multi-channel pipette (50 μL/well, 25000 cells/well for OX1R cells, 20000 cells/well for OX2R cells); placing the cell plate in a 37° C., 5% CO2 incubator overnight. • b) Compound loading: • 1) diluting the compound to 20 mM with DMSO, 3-fold dilution, 8 gradients, duplicate wells, and adding same to a compound plate with an Echo liquid handler; then adding 20 μL of buffer to maintain the final concentration of DMSO of 0.1%. • c) FLIPR experiment: • 1) washing off the cell culture medium in the 384 plate with a vacuum pump, adding […] Direct fluorescent dye, incubating in 37° C., 5% CO2 incubator for 1 h, and balancing at room temperature for another 10 min. • 2) EC50 test: manually diluting Orexin A on ice, 3-fold dilution, 8 gradients, duplicate wells; preparing a DMSO plate and keep the DMSO concentration to be 0.5%; putting the cell plate, OrexinA plate, and DMSO plate in FLIPR respectively, and reading the fluorescence value. • 3) calculating the EC70 value based on the EC50 value of Orexin A; preparing a 5×EC70 solution, adding same to 384 compound plate with a multi-channel pipette, and storing on ice; • 4) putting the compound plate, 5×EC70 plate, cell plate, and FLIPR tip in sequence in FLIPR, running the program, and reading the fluorescence value. • d) Data analyzing: using Prism5.0 to analyze the data, and calculating the IC50 value of the compound.
On the technique in general: Calcium flux is commonly read through the fluorescence of an indicator in the cells.

For assay [2], the target named is T2, OX2R (Homo sapiens, UniProt O43614).
T2 construct: expressed in transfected cells
T2 sequence (O43614 1-444): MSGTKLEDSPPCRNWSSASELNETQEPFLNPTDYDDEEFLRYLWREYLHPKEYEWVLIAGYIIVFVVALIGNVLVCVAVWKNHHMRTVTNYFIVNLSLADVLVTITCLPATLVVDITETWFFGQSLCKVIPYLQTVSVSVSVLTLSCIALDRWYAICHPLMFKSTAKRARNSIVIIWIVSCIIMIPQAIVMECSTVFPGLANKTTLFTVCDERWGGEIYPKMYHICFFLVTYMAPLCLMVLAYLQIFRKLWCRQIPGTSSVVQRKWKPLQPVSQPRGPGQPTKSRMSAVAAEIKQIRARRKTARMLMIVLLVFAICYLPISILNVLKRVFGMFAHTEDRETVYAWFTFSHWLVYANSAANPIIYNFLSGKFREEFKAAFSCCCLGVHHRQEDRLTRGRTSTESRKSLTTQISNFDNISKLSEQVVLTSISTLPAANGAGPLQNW
The experiment in a line: FLIPR intracellular calcium antagonism test, HEK293-OX2R cells. Type of assay: cell-based. The note with it: Orexin A at EC70, read-out: hOX2R IC50. As for the experimental part: as §1, §2, §3

Consider `COc1ccc2nc([C@@H]3[C@H]4C[C@H]4CN3C(=O)c3ccccc3-n3nccn3)[nH]c2c1` [Compound 1], for which the half-inhibitory concentration (IC50) in assay [1] was > 10 µM; in assay [2], 0.025 µM.
For `COc1ccc2nc([C@@H]3C[C@H]4C[C@H]4N3C(=O)c3ccccc3-n3nccn3)[nH]c2c1` [Compound 2] the same measures were > 10 µM and 0.072 µM.
`COc1ccc(-n2nccn2)c(C(=O)N2C[C@@H]3C[C@@H]3[C@H]2c2nc3ccc(OC)cc3[nH]2)c1` [Compound 4]: the concentration for half-maximal inhibition (IC50) in assay [1] was 0.462 µM; in assay [2], 0.064 µM.
For `COc1ccc2nc([C@@H]3[C@H]4C[C@H]4CN3C(=O)c3cc(C)ccc3-n3nccn3)[nH]c2c1` [Compound 5] the same measures were 0.337 µM and 0.096 µM.
For `COc1ccc2nc([C@@H]3[C@H]4C[C@H]4CN3C(=O)c3c(F)cccc3-n3nccn3)[nH]c2c1` [Compound 6] the same measures were 1.42 µM and 0.299 µM.
For `COc1ccc2nc([C@@H]3C[C@H]4C[C@H]4N3C(=O)c3cc(C)ccc3-n3nccn3)[nH]c2c1` [Compound 7] the same measures were 0.877 µM and 0.024 µM.
Take `COc1ccc2nc([C@@H]3C[C@H]4C[C@H]4N3C(=O)c3ccc(F)cc3-n3nccn3)[nH]c2c1` [Compound 9]: the concentration for half-maximal inhibition (IC50) in assay [1] came to 3.17 µM; in assay [2], 0.042 µM.
For `COc1ccc2[nH]c([C@@H]3C[C@H]4C[C@H]4N3C(=O)c3ccc(C)cc3-n3nccn3)nc2c1` [Compound 10], the IC50 in assay [1] is 0.71 µM; in assay [2] it was 0.017 µM.
For `COc1ccc2[nH]c([C@@H]3C[C@H]4C[C@H]4N3C(=O)c3cc(F)ccc3-n3nccn3)nc2c1` [Compound 11] the same measures were 3.6 µM and 0.033 µM.
Take `COc1ccc2[nH]c([C@@H]3C[C@H]4C[C@H]4N3C(=O)c3c(F)cccc3-n3nccn3)nc2c1` [Compound 12]: the IC50 in assay [1] was determined as 1.28 µM; in assay [2] it was 0.081 µM.
For `COc1ccc2[nH]c([C@@H]3C[C@H]4C[C@H]4N3C(=O)c3cc(C)ccc3-c3ncccn3)nc2c1` [Compound 13] the same measures were 2.44 µM and 0.06 µM.
On to `COc1ccc2[nH]c([C@@H]3C[C@H]4C[C@H]4N3C(=O)c3cc(Cl)ccc3-n3nccn3)nc2c1` [Compound 14], for which the half-inhibitory concentration (IC50) in assay [1] was 1.04 µM; in assay [2], 0.03 µM.

Values taken from US12583841B2, “Tetrahydropyrrolocyclic compound and application thereof” (Breakthrough Pharmaceuticals Inc., priority 2021, dated 2026).
